Measurements published in PubChem BioAssay (NCI).
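96-well plates; 48 h exposure; 5 concentrations. Endpoints by linear interpolation between flanking doses. Not reached: highest tested concentration assigned. Here, GI50 denotes the concentration required for 50% inhibition of growth. TGI: total growth inhibition.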

How the values were obtained:
Assay in all cases: inhibition of tumour cell growth, NCI panel, 48 h
IGROV1 ovarian = system: IGROV1 ovarian
HOP-92 NSCLC = system: HOP-92 NSCLC
NCI/ADR-RES ovarian = system: NCI/ADR-RES ovarian
RPMI-8226 leukemia = system: RPMI-8226 leukemia
CCRF-CEM leukemia = system: CCRF-CEM leukemia
SF-539 CNS = system: SF-539 CNS
PC-3 prostate = system: PC-3 prostate
A498 renal = system: A498 renal
MDA-MB-231 breast = system: MDA-MB-231 breast
UO-31 renal = system: UO-31 renal
LOX IMVI melanoma = system: LOX IMVI melanoma
HCT-116 colon = system: HCT-116 colon
SNB-75 CNS = system: SNB-75 CNS
UACC-257 melanoma = system: UACC-257 melanoma
RXF 393 renal = system: RXF 393 renal
COLO 205 colon = system: COLO 205 colon
KM12 colon = system: KM12 colon
SNB-19 CNS = system: SNB-19 CNS
SK-MEL-5 melanoma = system: SK-MEL-5 melanoma
SW-620 colon = system: SW-620 colon
NCI-H522 lung = system: NCI-H522 lung
K-562 leukemia = system: K-562 leukemia
U251 CNS = system: U251 CNS
SK-MEL-28 melanoma = system: SK-MEL-28 melanoma
OVCAR-5 ovarian = system: OVCAR-5 ovarian
M14 melanoma = system: M14 melanoma
TK-10 renal = system: TK-10 renal
HS 578T breast = system: HS 578T breast
HCT-15 colon = system: HCT-15 colon
NCI-H460 lung = system: NCI-H460 lung
NCI-H226 lung = system: NCI-H226 lung
OVCAR-8 ovarian = system: OVCAR-8 ovarian
OVCAR-4 ovarian = system: OVCAR-4 ovarian
OVCAR-3 ovarian = system: OVCAR-3 ovarian
HL-60(TB) leukemia = system: HL-60(TB) leukemia
MOLT-4 leukemia = system: MOLT-4 leukemia
786-0 renal = system: 786-0 renal
BT-549 breast = system: BT-549 breast
HT29 colon = system: HT29 colon
HCC-2998 colon = system: HCC-2998 colon
DU-145 prostate = system: DU-145 prostate
SF-268 CNS = system: SF-268 CNS
SK-MEL-2 melanoma = system: SK-MEL-2 melanoma
SN12C renal = system: SN12C renal
EKVX NSCLC = system: EKVX NSCLC
MCF7 breast = system: MCF7 breast
A549 NSCLC = system: A549 NSCLC
SR leukemia = system: SR leukemia
SF-295 CNS = system: SF-295 CNS
CAKI-1 renal = system: CAKI-1 renal
ACHN renal = system: ACHN renal
T-47D breast = system: T-47D breast
HOP-62 NSCLC = system: HOP-62 NSCLC
NCI-H23 lung = system: NCI-H23 lung
UACC-62 melanoma = system: UACC-62 melanoma
MDA-MB-435 = system: MDA-MB-435
SK-OV-3 ovarian = system: SK-OV-3 ovarian

Compound `O=C(NC1CCCCC1)NS(=O)(=O)c1ccc(-n2nc3c(c2-c2cccs2)Cc2ccccc2-3)cc1` has a GI50 (IGROV1 ovarian) of 4.12 µM, a TGI (IGROV1 ovarian) of 23 µM and a GI50 (HOP-92 NSCLC) of 14.3 µM. It also gave a TGI (HOP-92 NSCLC) of 29.6 µM, a GI50 (NCI/ADR-RES ovarian) of 20.4 µM and a TGI (NCI/ADR-RES ovarian) of 65.4 µM. It also gave a GI50 (RPMI-8226 leukemia) of 10.7 µM, a TGI (RPMI-8226 leukemia) of 30.6 µM and a GI50 (CCRF-CEM leukemia) of 1.15 µM. The TGI (CCRF-CEM leukemia) was 3.79 µM, the GI50 (SF-539 CNS) was 27.6 µM and the TGI (SF-539 CNS) was 61.8 µM. For the same compound, the GI50 (PC-3 prostate) was 14.5 µM, the TGI (PC-3 prostate) was 31.7 µM and the GI50 (A498 renal) was 57.2 µM. For the same compound, the TGI (A498 renal) was > 100 µM, the GI50 (MDA-MB-231 breast) was 27.9 µM and the TGI (MDA-MB-231 breast) was > 100 µM. It also gave a GI50 (UO-31 renal) of 15.4 µM, a TGI (UO-31 renal) of 39.9 µM and a GI50 (LOX IMVI melanoma) of 5.66 µM. For the same compound, the TGI (LOX IMVI melanoma) was 33.5 µM, the GI50 (HCT-116 colon) was 31.7 µM and the TGI (HCT-116 colon) was > 100 µM. For the same compound, the GI50 (SNB-75 CNS) was 52.5 µM, the TGI (SNB-75 CNS) was > 100 µM and the GI50 (UACC-257 melanoma) was 24.8 µM. For the same compound, the TGI (UACC-257 melanoma) was 72.7 µM, the GI50 (RXF 393 renal) was 29.2 µM and the TGI (RXF 393 renal) was 84.1 µM. It also gave a GI50 (COLO 205 colon) of 23.3 µM, a TGI (COLO 205 colon) of 51.1 µM and a GI50 (KM12 colon) of 34.9 µM. The TGI (KM12 colon) was > 100 µM, the GI50 (SNB-19 CNS) was 56.8 µM and the TGI (SNB-19 CNS) was > 100 µM. The GI50 (SK-MEL-5 melanoma) was 18.7 µM, the TGI (SK-MEL-5 melanoma) was 43 µM and the GI50 (SW-620 colon) was 20.7 µM. For the same compound, the TGI (SW-620 colon) was > 100 µM, the GI50 (NCI-H522 lung) was 12.3 µM and the TGI (NCI-H522 lung) was 40.3 µM. The GI50 (K-562 leukemia) was 10 µM, the TGI (K-562 leukemia) was 35 µM and the GI50 (U251 CNS) was 25.6 µM. For the same compound, the TGI (U251 CNS) was > 100 µM, the GI50 (SK-MEL-28 melanoma) was 34.2 µM and the TGI (SK-MEL-28 melanoma) was > 100 µM. The GI50 (OVCAR-5 ovarian) was 26.6 µM, the TGI (OVCAR-5 ovarian) was 68.6 µM and the GI50 (M14 melanoma) was 64.1 µM. The TGI (M14 melanoma) was > 100 µM, the GI50 (TK-10 renal) was 17.5 µM and the TGI (TK-10 renal) was 34.9 µM. The GI50 (HS 578T breast) was 37.5 µM, the TGI (HS 578T breast) was > 100 µM and the GI50 (HCT-15 colon) was 17.8 µM. The TGI (HCT-15 colon) was 41 µM, the GI50 (NCI-H460 lung) was 93 µM and the TGI (NCI-H460 lung) was > 100 µM. For the same compound, the GI50 (NCI-H226 lung) was 21.3 µM, the TGI (NCI-H226 lung) was 64.9 µM and the GI50 (OVCAR-8 ovarian) was 25.3 µM. For the same compound, the TGI (OVCAR-8 ovarian) was 90.5 µM, the GI50 (OVCAR-4 ovarian) was 27 µM and the TGI (OVCAR-4 ovarian) was > 100 µM. For the same compound, the GI50 (OVCAR-3 ovarian) was 24.5 µM, the TGI (OVCAR-3 ovarian) was > 100 µM and the GI50 (HL-60(TB) leukemia) was 25 µM. It also gave a TGI (HL-60(TB) leukemia) of 48.8 µM, a GI50 (MOLT-4 leukemia) of 4.99 µM and a TGI (MOLT-4 leukemia) of 37.8 µM. For the same compound, the GI50 (786-0 renal) was 32.3 µM, the TGI (786-0 renal) was > 100 µM and the GI50 (BT-549 breast) was 33.7 µM. For the same compound, the TGI (BT-549 breast) was 94.1 µM, the GI50 (HT29 colon) was 34.3 µM and the TGI (HT29 colon) was > 100 µM. The GI50 (HCC-2998 colon) was 6.63 µM, the TGI (HCC-2998 colon) was 24.1 µM and the GI50 (DU-145 prostate) was 31.9 µM. The TGI (DU-145 prostate) was > 100 µM, the GI50 (SF-268 CNS) was > 100 µM and the TGI (SF-268 CNS) was > 100 µM. It also gave a GI50 (SK-MEL-2 melanoma) of 23.6 µM, a TGI (SK-MEL-2 melanoma) of 64.7 µM and a GI50 (SN12C renal) of 21.5 µM. It also gave a TGI (SN12C renal) of 47.7 µM, a GI50 (EKVX NSCLC) of 28.6 µM and a TGI (EKVX NSCLC) of 65.4 µM. The GI50 (MCF7 breast) was > 100 µM, the TGI (MCF7 breast) was > 100 µM and the GI50 (A549 NSCLC) was 28 µM. For the same compound, the TGI (A549 NSCLC) was > 100 µM, the GI50 (SR leukemia) was 1.57 µM and the TGI (SR leukemia) was 4.01 µM. For the same compound, the GI50 (SF-295 CNS) was 34.9 µM, the TGI (SF-295 CNS) was > 100 µM and the GI50 (CAKI-1 renal) was 16 µM. The TGI (CAKI-1 renal) was 44.4 µM, the GI50 (ACHN renal) was 17.3 µM and the TGI (ACHN renal) was 33.6 µM. For the same compound, the GI50 (T-47D breast) was 39.7 µM, the TGI (T-47D breast) was > 100 µM and the GI50 (HOP-62 NSCLC) was > 100 µM. The TGI (HOP-62 NSCLC) was > 100 µM, the GI50 (NCI-H23 lung) was 12.8 µM and the TGI (NCI-H23 lung) was 33.8 µM. It also gave a GI50 (UACC-62 melanoma) of 19.3 µM, a TGI (UACC-62 melanoma) of 53 µM and a GI50 (MDA-MB-435) of 32.5 µM. For the same compound, the TGI (MDA-MB-435) was > 100 µM, the GI50 (SK-OV-3 ovarian) was 44.5 µM and the TGI (SK-OV-3 ovarian) was > 100 µM.
